Assay results published in US20150245596A1, “MELANOCORTIN RECEPTOR MUTANT MOUSE AND USES THEREOF” (THE GENERAL HOSPITAL CORPORATION, priority 2012, published 2015).
Entries after “also recorded” stand apart in the source; their conditions may differ.

Legend:
redhead-BRaf^CA melanoma = test: In vivo PLX4720 study, mouse chow containing PLX4720; settings: 4 weeks of mouse chow containing 2% PLX4720 by weight, n=3
Description: At 6-10 weeks of age the dorsal fur was trimmed using animal shears with a 0.25 mm head and the mice were treated topically with 20 mg/ml tamoxifen for 5 consecutive days. […] For in vivo PLX4720 studies, animals were given ad libitum mouse chow containing 2% PLX4720 by weight or control chow acquired from Plexxikon Inc. All studies and procedures involving animal subjects were approved by the Institutional Animal Care and Use Committees of Massachusetts General Hospital and Dana-Farber Harvard Cancer Center and were conducted strictly in accordance with the approved animal handling protocol.

[1] = tested on: primary cell line derived from one of the redhead (BRaf^V600E-Mc1r^e/e) melanomas; settings: redhead-derived melanoma cells
Description: (§1) Tumor cells were digested overnight in 10 mg/ml collagenase and 1 mg/ml hyaluronidase. Initially tumor cells were grown in RPMI media with HEPES and 20% serum. Subsequently tumor cells were grown in DMEM media with 10% serum.

[2] = tested on: primary cell line derived from one of the redhead (BRaf^V600E-Mc1r^e/e) melanomas; test: cells; settings: Mus musculus, 72 h, read-out: GI50, melanoma cell proliferation
Description: as §1

[3] = tested on: melanocytic markers (Mitf, Dct, Tyrp1 mRNA); test: Quantitative RT-PCR of melanocytic markers in primary cultured tumor cells; format: cell-based, mouse; settings: 2 μM PLX4720, mRNA normalized to 18s rRNA and 0 h timepoint
Description: RNA was harvested from primary cultured tumor cells treated for varying times with forskolin or PLX4720 using the RNeasy Plus mini kit (QIAGEN). mRNA expression of melanocytic markers was determined using intron-spanning mouse-specific primers with Kapa SYBR FAST qPCR master mix (KAPA BIOSYSTEMS). Expression was normalized to 18s rRNA and 0 hour time-points.

Row | Structure (SMILES) | melanoma growth in vivo (redhead-BRaf^CA melanoma) | melanoma cell proliferation in vitro [1] | GI50 [2] [µM] | expression of melanocytic markers [3]
1 | CCCS(=O)(=O)Nc1ccc(F)c(C(=O)c2c[nH]c3ncc(Cl)cc23)c1F [PLX4720] | blocked tumor cell growth in vivo; also recorded: blocks melanoma growth in vivo | prevented melanoma cell proliferation in vitro | 0.5 | upregulates
2 | N#CC(=C(/N)Sc1ccccc1N)/C(C#N)=C(\N)Sc1ccccc1N [U0126] |  | prevented melanoma cell proliferation in vitro | 2 | 
